Consider 20 molecules from patent publication US5998437A, “Benzimidazole derivatives” (Otsuka Pharmaceutical Co., Ltd., priority 1995, dated 1999).

Each structure is given as a SMILES string. pIC50: −log10 of the molar value. Like-named read-outs stand apart in the source and are kept apart here.

One experiment deals with T1, cGMP-PDE (Homo sapiens, UniProt O76074).
T1 construct: Separation and partial purification of PDE (phosphodiesterase) from human platelets; from tissue; host or cells: human platelets (supernatant, DEAE-cellulose FI fraction)
In words: Activity for inhibiting cGMP PDE (PDE partially purified from human platelets, FI fraction). To be noted: 0.4 μM of [3H]-cGMP. Type of experiment: biochemical. The method, then: (1) Measurement of the Activity for Inhibiting cGMP PDE
Separation and partial purification of PDE (phosphodiesterase) from human platelets, and measurement of the activity for inhibiting cGMP PDE were conducted by the method of Hidaka, et al. [Biochimica et Biophysica Acta, Vol. 429, (1976), pp. 485-497]. The platelets obtained from human healthy adult were washed, and suspended in TRIS-buffer solution, then said suspension was treated by centrifugal separation, the supernatant was subjected to a DEAE-cellulose treatment and fractionated into FI to FIII fractions by a method of concentration gradient of sodium acetate. Thus obtained FI fraction was used as the sample of cGMP-PDE. The activity for inhibiting cGMP-PDE was measured by using 0.4 μM of [^3 H]-cGMP.

Another experiment relates to rat A10 cells. As to the kind of experiment: Activity for inhibiting proliferation of rat A10 cells ([3H]-thymidine uptake). The format is cell-based. The conditions noted are these: read-out: Activity for inhibiting proliferation of rat A10 cells [IC50 (μM)]. The method, then: (2) Measurement of the Activity for Inhibiting Proliferation of Rat A10 Cells
(§1) Test was conducted by the modified method of N. Morisaki [Atherosclerosis, Vol. 71, (1988), pp. 165-171]. The rat A10 cells (purchased from Dainippon Pharmaceutical Co., Ltd.) were inoculated on a 24 wells immunoplate at a density of 10,000 cells/well, and were cultured in 10% FBS (fetal bovine serum) for 2 days, and in order to introduce the cells into the resting stage, the cells were further cultured in a serum-free medium for 2 days. After that, 1% FBS was added thereto for stimulating the proliferation, of the cells and at the same time, a test compound and 0.5 μCi/well of [^3 H]-thymidine were added. As to the index of synthesized amount of DNA, the quantity of [^3 H]-thymidine being uptaken by the cells was measured at the time of 24 hours after the final cultivation was started.

The test system of the next experiment is human fibroblast. As to the kind of experiment: Activity for inhibiting proliferation of the human fibroblast ([3H]-thymidine uptake). Type of experiment: cell-based. The method, then:
as §1
(3) Measurement of the Activity for Inhibiting Proliferation of the Human Fibroblast
Similar to the activity for inhibiting proliferation of rat A10 cells as mentioned above, the activity for inhibiting proliferation of the human fibroblast (purchased from Dainippon Pharmaceutical Co., Ltd.) was determined by measuring the uptake amount of [^3 H]-thymidine.

Where [1] appears, read: A10, 1% FBS stimulation, 24 hours.

`O=C(Nc1ccc2[nH]ccc2c1)c1nc2ccc(Cl)cc2n1Cc1ccccc1` [Example 2]: the IC50 came to 0.02 µM against cGMP-PDE and 0.4 µM in the experiment with rat A10 cells (A10, 24 h). Take `CC(C)c1nccn1CCCn1ccc2cc(CNC(=O)c3nc4ccc(Cl)cc4n3Cc3ccccc3)ccc21` [Example 18]: the IC50 in the experiment with rat A10 cells (setting [1]) came out at 0.48 µM. Turning to `O=C(NCCCN1CCc2cc(NC(=O)c3nc4ccc(Cl)cc4n3Cc3ccccc3)ccc21)c1ccc[nH]1` [Example 28], the IC50 on cGMP-PDE was less than 0.01 µM. For `O=C(NCCCn1ccc2cc(NC(=O)c3nc4ccc(Cl)cc4n3Cc3ccccc3)ccc21)c1cccnc1` [Example 11, 1-benzyl-6-chloro-2-{1-[3-(pyridin-3-ylcarbonylamino)propyl]indol-5-ylaminocarbonyl}benzimidazole], the IC50 on cGMP-PDE was found to be 0.01 µM; in the experiment with rat A10 cells (setting [1]), 0.97 µM.

Turning to `CN(C)CCN(C)CCCN1C(=O)CCc2cc(NC(=O)c3nc4ccc(Cl)cc4n3Cc3ccccc3)ccc21` [Example 44], the IC50 against cGMP-PDE stood at 0.014 µM. The molecule `CC(C)n1nnnc1CN1C(=O)CCc2cc(NC(=O)c3nc4ccc(Cl)cc4n3Cc3ccccc3)ccc21` [Example 45] had a pIC50 with human fibroblast of 7.39. As for `O=C(Nc1ccc2[nH]ncc2c1)c1nc2ccc(Cl)cc2n1Cc1ccccc1` [Example 21], the IC50 against cGMP-PDE was 0.02 µM. Same read-out and setting: the result for `O=C(Nc1ccc2[nH]c(=O)ccc2c1)c1nc2ccc(Cl)cc2n1Cc1ccccc1` [Example 46, 1-benzyl-6-chloro-2-[2(1H)-quinolinon-6-ylamino-caronyl]benzimidazole] reads less than 0.01 µM. Take `Cc1noc(C)c1C(=O)NCCCn1ccc2cc(NC(=O)c3nc4ccc(Cl)cc4n3Cc3ccccc3)ccc21` [Example 12]: the IC50 with rat A10 cells (setting [1]) was found to be 0.69 µM. Consider `O=C(Nc1ccc2c(c1)CCN2CCCN1CCC(O)(c2ccccc2)CC1)c1nc2ccc(Cl)cc2n1Cc1ccccc1` [Example 20], for which the IC50 on cGMP-PDE was 0.01 µM; in the experiment on rat A10 cells (A10, 24 h) it was 0.85 µM. Consider `COC(=O)n1ccc2cc(NC(=O)c3nc4ccc(Cl)cc4n3Cc3ccccc3)ccc21` [Example 9], for which the IC50 against cGMP-PDE came to 0.08 µM. The same measure, in the same setting: next, `N#Cc1cccc(OCCCn2ccc3cc(NC(=O)c4nc5ccc(Cl)cc5n4Cc4ccccc4)ccc32)c1` [Example 25]: 0.12 µM. Consider `O=C(Nc1ccc2c(ccn2CCCn2cccn2)c1)c1nc2ccc(Cl)cc2n1Cc1ccccc1` [Example 6], for which the IC50 in the experiment with rat A10 cells (setting [1]) came to 0.66 µM. Consider `Cc1noc(C)c1C(=O)NCCCN1CCc2cc(NC(=O)c3nc4ccc(Cl)cc4n3Cc3ccccc3)ccc21` [Example 33], for which the figures for the IC50 on cGMP-PDE and in the experiment with rat A10 cells (setting [1]) were less than 0.01 µM and 1.27 µM, respectively. The pIC50 in the experiment on human fibroblast was 7.38. Regarding `CN(CCCn1ccc2cc(NC(=O)c3nc4ccc(Cl)cc4n3Cc3ccccc3)ccc21)C1CCCCC1` [Example 4], the IC50 against cGMP-PDE was 0.06 µM; with rat A10 cells (setting [1]), 0.3 µM.

On to `O=C1CCc2cc(NC(=O)c3nc4ccc(Cl)cc4n3Cc3ccccc3)ccc2N1` [Example 41, 1-benzyl-6-chloro-2-(3,4-dihydro-2(1H)-quinolinon-6-ylaminocarbonyl)benzimidazole], for which the IC50 against cGMP-PDE is 0.02 µM.

As for `O=C(NCCCN1CCOc2cc(NC(=O)c3nc4ccc(Cl)cc4n3Cc3ccccc3)ccc21)c1ccccn1` [Example 47], the IC50 is less than 0.01 µM against cGMP-PDE and 0.67 µM in the experiment with rat A10 cells (setting [1]). This molecule showed a pIC50 in the experiment on human fibroblast of 7.68. For the molecule `O=C(Nc1ccc2c(ccn2CCCn2cncn2)c1)c1nc2ccc(Cl)cc2n1Cc1ccccc1` [Example 7], the IC50 in the experiment on rat A10 cells (setting [1]) came to 0.49 µM. As to `C=CCN1C(=O)CCc2cc(NC(=O)c3nc4ccc(Cl)cc4n3Cc3ccccc3)ccc21` [Example 42], the values for the IC50 against cGMP-PDE and with rat A10 cells (setting [1]) were 0.1 µM and 0.95 µM, respectively. In the experiment on human fibroblast, `CC(C)n1nnnc1Cn1ccc2cc(NC(=O)c3nc4ccc(Cl)cc4n3Cc3ccccc3)ccc21` [Example 16] showed a pIC50 of 7.31.

What is called pIC50 is −log10 of the IC50, conventionally taken in molar units. Low values mean a large IC50, high ones a small IC50.
